Data as given in the NIST ThermoML archive (doi:10.1021/je034177v).
± gives the expanded uncertainty stated by the source.

Legend:
[1] = molar heat capacity at constant pressure; details: 101 kPa, Liquid, Small sample (50 mg) DSC
[2] = 101 kPa, Liquid; for speed of sound: Pulse-echo method; for mass density: Vibrating tube method

ClCCCCCCl [1,5-dichloropentane]
Details | mass density, [2] [kg/m3] | molar heat capacity at constant pressure, [1] [J/K/mol] | speed of sound, [2] [m/s]
278.15 K | 1115.28 ± 0.52 | – | 1376.6 ± 1.1
283.15 K | 1110.26 ± 0.52 | 209.65 ± 3.2 | 1358.9 ± 1.1
288.15 K | 1105.2 ± 0.52 | 210.73 ± 3.3 | 1341 ± 1.1
293.15 K | 1100.16 ± 0.51 | 211.89 ± 3.3 | 1323.2 ± 1.1
298.15 K | 1095.11 ± 0.51 | 212.94 ± 3.3 | 1305.4 ± 1.1
303.15 K | 1090.07 ± 0.51 | 214.06 ± 3.3 | 1287.9 ± 1.1
308.15 K | 1085.02 ± 0.51 | 215.21 ± 3.3 | 1270.3 ± 1.1
313.15 K | 1079.97 ± 0.5 | 216.38 ± 3.4 | 1253 ± 1.1
318.15 K | 1074.95 ± 0.5 | 217.56 ± 3.4 | 1235.8 ± 1.1
323.15 K | 1069.89 ± 0.5 | 218.76 ± 3.4 | 1218.7 ± 1.1
328.15 K | 1064.93 ± 0.5 | – | 1201.6 ± 1.1

ClCCCCCCCl [1,6-dichlorohexane]
Details | mass density, [2] [kg/m3] | molar heat capacity at constant pressure, [1] [J/K/mol] | speed of sound, [2] [m/s]
278.15 K | 1082.7 ± 0.3 | – | 1387.4 ± 0.85
283.15 K | 1077.97 ± 0.29 | 236.59 ± 3.7 | 1370 ± 0.85
288.15 K | 1073.22 ± 0.29 | 237.9 ± 3.7 | 1352.3 ± 0.84
293.15 K | 1068.47 ± 0.29 | 239.26 ± 3.7 | 1334.8 ± 0.84
298.15 K | 1063.74 ± 0.29 | 240.6 ± 3.7 | 1317.3 ± 0.83
303.15 K | 1059 ± 0.29 | 241.94 ± 3.8 | 1299.9 ± 0.83
308.15 K | 1054.25 ± 0.29 | 243.37 ± 3.8 | 1282.7 ± 0.82
313.15 K | 1049.5 ± 0.29 | 244.81 ± 3.8 | 1265.7 ± 0.82
318.15 K | 1044.78 ± 0.28 | 246.28 ± 3.8 | 1248.7 ± 0.81
323.15 K | 1040.03 ± 0.28 | 247.76 ± 3.8 | 1231.8 ± 0.81
328.15 K | 1035.37 ± 0.28 | – | 1215.1 ± 0.8
